Several values for one entry are separate records, joined by “and”; a condition that tells them apart may be missing. Equal entries are not always repeated.
What was measured:
PINK1wt mice = experiment: Heart stress model (trans-aortic banding, angiotensin II); type: in vivo; conditions: two weeks dosing, TAB or Angiotensin II; for pathological hypertrophy: 14 days
Source text: Stress on the heart also induces pathological hypertrophy and increased apoptosis, and serves as a good model for heart disease. We utilized trans-aortic banding (TAB) and treatment with angiotensin II to increase pressure in the heart and a model for heart attack by induced myocardial infarction. We treated mice as above with kinetin as well as adenine and vehicle controls for two weeks. We then increased pressure in the heart by performing surgery to partially occlude the aorta (TAB) or sham operation. Additionally we directly injected of a bolus of Angiotensin II or saline into the heart (Billia et al., 2011) to increase blood pressure. […] As the depletion of PINK1 leads to more pathological hypertrophy and increased apoptosis, by amplifying PINK1 activity these characteristics of heart failure will be further reduced.

PINK1−/− mice = experiment: Heart health and performance in mice treated from birth; type: in vivo
Experimental: PINK1 expression is protective in several mouse models of heart failure. PINK1wt expression will block pathological hypertrophy, increase heart fractional shortening, and prevent ischemia induced death of heart tissue. To assay the effect of kinetin PINK1 wt or PINK1−/− mice were treated with vehicle, adenine or kinetin from birth following published protocols for administration of kinetin (Hims et al., 2007; Shetty et al., 2011). The mice were sacrificed and whole hearts analyzed, and isolated cardiomyocytes from mice at appropriate time periods (e.g. 2 and 6 months). O2 consumption, mitochondrial integrity (mtDNA abundance, mitochondrial capacity and JC-1 fluorescence) caspase 3/7 cleavage activity and TUNEL staining were measured to assess the health of these tissues. According to published results (Billia et al., 2011; Chen and Dorn, 2013), PINK1 activity is essential for normal 02 consumption and maintenance of mitochondrial integrity. Decreased 02 consumption and mitochondrial integrity in PINK1−/− mice was compared to PINK1wt mice. […] Additionally, caspase 3/7 cleavage activity and TUNEL staining of the left ventricle were increased in PINK1−/− mice derived cardiomyocytes compared to PINK1wt.
In addition to these analyses we analyzed the performance of the heart in whole animals. We utilized the same procedure as above and treated either PINK1wt or PINK1−/− mice with vehicle, adenine or kinetin from birth following published protocols for administration of kinetin (Hims et al., 2007; Shetty et al., 2011). […] These characteristics of pathological hypertrophy indicate heart failure in the PINK1−/− mice will not increase as dramatically in PINK1wt mice (Billia et al., 2011). […] These experiments indicate that amplification of PINK1 activity by treatment with kinetin can block age-induced loss in heart function.

PINK1^wt = PINK1^wt (Homo sapiens, UniProt Q9BXM7); experiment: Parkin mitochondrial translocation assay in HeLa cells after CCCP depolarization; type: cell-based; design: transfection with MitoGFP, mCherry Parkin, and full length PINK1FLAG3 in a 1:4:2 ratio; expressed in transfected cells; host or cells: HeLa; conditions: for 50% Recruitment Times (R50) mCherry Parkin to depolarized mitochondria: HeLa cells with PINK1^wt, mCherryParkin, mitoGFP, 48 hours, 25 μM; for mean change in co-localization: PINK1^wt expressing cells, algorithm quantified
Chain of PINK1^wt (Q9BXM7 78-581): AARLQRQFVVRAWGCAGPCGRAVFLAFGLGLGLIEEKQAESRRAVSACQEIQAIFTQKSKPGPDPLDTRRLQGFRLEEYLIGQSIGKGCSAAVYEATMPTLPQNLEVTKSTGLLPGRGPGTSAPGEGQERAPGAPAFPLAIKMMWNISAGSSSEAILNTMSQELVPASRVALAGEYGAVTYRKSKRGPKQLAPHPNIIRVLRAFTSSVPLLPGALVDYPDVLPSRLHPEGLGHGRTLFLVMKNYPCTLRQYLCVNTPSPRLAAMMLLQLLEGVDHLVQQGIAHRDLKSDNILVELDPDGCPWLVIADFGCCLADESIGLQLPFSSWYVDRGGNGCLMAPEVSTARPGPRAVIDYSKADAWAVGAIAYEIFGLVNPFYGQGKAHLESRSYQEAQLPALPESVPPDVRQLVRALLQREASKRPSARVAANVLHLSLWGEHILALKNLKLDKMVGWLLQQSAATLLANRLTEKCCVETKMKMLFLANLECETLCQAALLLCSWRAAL
Experimental: (§1) Parkin phosphorylation and mitochondrial translocation assay: HeLa cells were grown in DMEM supplemented with 10% FBS. Log phase cells were plated in 24 well plates with glass coverslips (Mattek) pretreated with fibronectin. Cells were pretreated with 50 μM of the indicated compound, followed by transfection with MitoGFP, mCherry Parkin, and full length PINK1FLAG3 in a 1:4:2 ratio using Fugene 6 (Promega). Fields of cells were selected by expression of MitoGFP (6 fields/well-3 wells/condition) and imaged at five-minute intervals following depolarization with 5 μM CCCP. Quantification was performed according to published protocols^3 and by creation of a Matlab based script.
(§2) Our ability to enhance PINK1 activity in-vitro using KTP led us to investigate means by which to achieve enhanced activity in cells expressing PINK1. […] We treated cells with either kinetin or adenine (FIG. 2A) and measured Parkin localization following mitochondrial depolarization with CCCP (FIG. 2B). HeLa cells, which have low levels of endogenous PINK1 and PARKIN, were transfected with wildtype or PINK1^G309D, mCherryParkin, and mitoGFP. After 48 hours of incubation with 25 μM adenine, kinetin or equivalent DMSO, we imaged CCCP-mediated depolarization of mitochondria (FIGS. 2C, 2D) and calculated the percentage of GFP labelled mitochondria with mCherryParkin associated (FIG. 2E). In line with previous reports^3, transfection of PINK1^G309D slowed the 50% recruitment (R50) time of mCherryParkin to depolarized mitochondria (23±2 min vs 15±1 min R50) (FIGS. 2C-2E Table.2). […] Using an algorithm to accurately quantify the time dependent change in co-localization, we calculated that PINK1^wt expressing cells achieved a mean change in co-localization of 0.112 with DMSO or adenine and 0.13 with kinetin treatment (FIGS. 7A-7F); PINK1^G309D expressing cells treated with DMSO or adenine achieved delta co-localization of 0.076, but upon addition of kinetin returned to near-PINK1-wildtype levels (0.124).
(§3) To test the PINK1-dependency of our findings, we assayed PINK1 activity by using phospho specific antibodies raised against Parkin's PINK1-specific S65 phosphosite^21 after immuno-precipitating Parkin. […] To test whether kinetin stimulated Parkin localization was due to reversible binding of kinetin to PINK1, we treated the cells with fresh medium for 96 hours before performing a new recruitment assay. Similar recruitment rates were observed following the washout (FIG. 2F). […] We followed previously published methods to calculate the percentage of GFP labeled mitochondria with mCherryParkin associated. Transfection of G309DPINK11-581 slowed the rate of mCherryParkin recruitment (23+2 min vs 15+1 min R50) as per reported results. The addition of kinetin, but not adenine, increased the rate of mCherryParkin recruitment in wt cells from 15+1 to 10+2 min and G309D cells from 23+2 to 15+2 min. We then incubated the cells with kinetin for 2 days, washed the cells with fresh medium then performed the recruitment assay and saw the same increase in the rate of recruitment. […] We developed an algorithm to calculate the change in co-localization. The wtPINK1 cells achieved a mean change in co-localization of 0.11 with DMSO, adenine or kinetin treatment. G309DPINK1 expressing cells treated with DMSO or Adenine, achieved delta co-localization of 0.075 but upon addition of kinetin indicating rescue to the wt level (0.11) (P>0.05).

PINK1^G309D = PINK1^G309D (Homo sapiens, UniProt Q9BXM7, G309D); experiment: as above; type: cell-based; design: transfection with MitoGFP, mCherry Parkin, and full length PINK1FLAG3 in a 1:4:2 ratio; expressed in transfected cells; host or cells: HeLa; conditions: for 50% Recruitment Times (R50) mCherry Parkin to depolarized mitochondria: HeLa cells with PINK1^G309D, mCherryParkin, mitoGFP, 48 hours, 25 μM; for delta co-localization: PINK1^G309D expressing cells, algorithm quantified
Chain of PINK1^G309D (Q9BXM7 78-581 G309D): as the sequence (Q9BXM7 78-581) above, with G232D counted along it
Experimental: as §1, §2, §3

50% Recruitment Times (R50) mCherry Parkin to depolarized mitochondria (PINK1^wt) | mean change in co-localization (PINK1^wt) | 50% Recruitment Times (R50) mCherry Parkin to depolarized mitochondria (PINK1^G309D) | delta co-localization (PINK1^G309D) | delta co-localization (PINK1^G309D; listed as Adenine) | Compound | pathological hypertrophy (PINK1wt mice) | age induced pathological hypertrophy (PINK1−/− mice) | total number of TUNEL positive cells, left ventricle (PINK1wt mice)
15 ± 1 min | 0.112 and 0.11 | 23 ± 2 min | 0.076 | 0.075 | Nc1ncnc2nc[nH]c12 [adenine, reference compound] | not | no effect | 
10±2 min and 10+2 min | 0.13 and 0.11 | 15±2 min and 15+2 min | 0.124 and 0.11 |  | c1coc(CNc2ncnc3[nH]cnc23)c1 [kinetin] | reduces the pathological hypertrophy | no effect | reduced the total number of TUNEL positive cells
